According to patent publication US12215140B2, “Method of stabilizing protein contained in specimen and solution for stabilizing protein contained in specimen” (EIKEN KAGAKU KABUSHIKI KAISHA, priority 2018, dated 2025):

Test system: hemoglobin-haptoglobin complex
Assay: Stability of hemoglobin (as hemoglobin-haptoglobin complex) in samples preserved at 37° C. in preservation solution containing 1 unit/L haptoglobin, Hb measured by latex agglutination method (Examples 1 to 7)
Parameters: species or system human
Details: for Hb concentration / Recovery ratio with respect to Hb concentration after 0 days / Recovery ratio with respect to Hb after 0 days: 37° C.
Method in brief: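 Hemoglobin (~300 µg/L) in 0.5% fecal suspension, or without feces, held at 37 °C for 0–21 days in 40 mmol/L HEPES pH 6.8, 0.1% BSA, 0.1% NaN3, 1 unit/L haptoglobin, with 0–100 mmol/L phenylboronic acid ± sugars. Hb quantified by latex agglutination with anti-human Hb rabbit polyclonal; recovery (%) relative to day 0.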

[1] = Feces 3, sugar 50 mmol/L + phenylboronic acid 15 mmol/L, 7 days
[2] = Feces 3, sugar 50 mmol/L + phenylboronic acid 15 mmol/L, 14 days
[3] = Feces 3, sugar 50 mmol/L + phenylboronic acid 15 mmol/L, 21 days
[4] = Feces 3, sugar 100 mmol/L + phenylboronic acid 0.5 mmol/L, 0 days
[5] = Feces 3, sugar 100 mmol/L + phenylboronic acid 0.5 mmol/L, 7 days
[6] = Feces 3, sugar 100 mmol/L + phenylboronic acid 0.5 mmol/L, 14 days
[7] = Feces 3, sugar 100 mmol/L + phenylboronic acid 15 mmol/L, 0 days
[8] = Feces 3, sugar 100 mmol/L + phenylboronic acid 15 mmol/L, 0 days (Table 7)
[9] = Feces 3, sugar 100 mmol/L + phenylboronic acid 15 mmol/L, 7 days
[10] = Feces 3, sugar 100 mmol/L + phenylboronic acid 15 mmol/L, 7 days (Table 7)
[11] = Feces 3, sugar 100 mmol/L + phenylboronic acid 15 mmol/L, 14 days
[12] = Feces 3, sugar 100 mmol/L + phenylboronic acid 15 mmol/L, 14 days (Table 7)
[13] = Feces 3, sugar 100 mmol/L + phenylboronic acid 15 mmol/L, 21 days
[14] = Feces 3, sugar 100 mmol/L + phenylboronic acid 50 mmol/L, 0 days
[15] = Feces 3, sugar 100 mmol/L + phenylboronic acid 50 mmol/L, 7 days
[16] = Feces 3, sugar 100 mmol/L + phenylboronic acid 50 mmol/L, 14 days
[17] = Feces 3, sugar 100 mmol/L, no phenylboronic acid, 0 days
[18] = Feces 3, sugar 100 mmol/L, no phenylboronic acid, 7 days
[19] = Feces 3, sugar 100 mmol/L, no phenylboronic acid, 14 days
[20] = Feces 3, sugar 100 mmol/L, no phenylboronic acid, 21 days
[21] = No feces, sugar 50 mmol/L + phenylboronic acid 15 mmol/L, 0 days
[22] = No feces, sugar 50 mmol/L + phenylboronic acid 15 mmol/L, 7 days
[23] = No feces, sugar 50 mmol/L + phenylboronic acid 15 mmol/L, 14 days
[24] = No feces, sugar 50 mmol/L + phenylboronic acid 15 mmol/L, 21 days
[25] = No feces, sugar 100 mmol/L + phenylboronic acid 0.5 mmol/L, 0 days
[26] = No feces, sugar 100 mmol/L + phenylboronic acid 0.5 mmol/L, 7 days
[27] = No feces, sugar 100 mmol/L + phenylboronic acid 0.5 mmol/L, 14 days
[28] = No feces, sugar 100 mmol/L + phenylboronic acid 15 mmol/L, 0 days
[29] = No feces, sugar 100 mmol/L + phenylboronic acid 15 mmol/L, 0 days (Table 7)
[30] = No feces, sugar 100 mmol/L + phenylboronic acid 15 mmol/L, 7 days
[31] = No feces, sugar 100 mmol/L + phenylboronic acid 15 mmol/L, 7 days (Table 7)
[32] = No feces, sugar 100 mmol/L + phenylboronic acid 15 mmol/L, 14 days
[33] = No feces, sugar 100 mmol/L + phenylboronic acid 15 mmol/L, 14 days (Table 7)
[34] = No feces, sugar 100 mmol/L + phenylboronic acid 15 mmol/L, 21 days
[35] = No feces, sugar 100 mmol/L + phenylboronic acid 50 mmol/L, 0 days
[36] = No feces, sugar 100 mmol/L + phenylboronic acid 50 mmol/L, 7 days
[37] = No feces, sugar 100 mmol/L + phenylboronic acid 50 mmol/L, 14 days
[38] = No feces, sugar 100 mmol/L, no phenylboronic acid, 0 days
[39] = No feces, sugar 100 mmol/L, no phenylboronic acid, 7 days
[40] = No feces, sugar 100 mmol/L, no phenylboronic acid, 14 days
[41] = No feces, sugar 100 mmol/L, no phenylboronic acid, 21 days

OC[C@@H](O)[C@@H](O)[C@H](O)[C@@H](O)CO [Sorbitol, sorbitol]
Hb concentration [1]: 250 µg/L | Recovery ratio with respect to Hb concentration after 0 days [1]: 88% | Hb concentration [2]: 235 µg/L | Recovery ratio with respect to Hb concentration after 0 days [2]: 83% | Hb concentration [3]: 223 µg/L | Recovery ratio with respect to Hb concentration after 0 days [3]: 79% | Hb concentration [4]: 294 µg/L | Recovery ratio with respect to Hb after 0 days [4]: 100% | Hb concentration [5]: 163 µg/L | Recovery ratio with respect to Hb after 0 days [5]: 55% | Hb concentration [6]: 145 µg/L | Recovery ratio with respect to Hb after 0 days [6]: 49% | Hb concentration [7]: 278 µg/L | Recovery ratio with respect to Hb concentration after 0 days [7]: 100% | Hb concentration [8]: 292 µg/L | Recovery ratio with respect to Hb after 0 days [8]: 100% | Hb concentration [9]: 244 µg/L | Recovery ratio with respect to Hb concentration after 0 days [9]: 88% | Hb concentration [10]: 246 µg/L | Recovery ratio with respect to Hb after 0 days [10]: 84% | Hb concentration [11]: 226 µg/L | Recovery ratio with respect to Hb concentration after 0 days [11]: 81% | Hb concentration [12]: 233 µg/L | Recovery ratio with respect to Hb after 0 days [12]: 80% | Hb concentration [13]: 219 µg/L | Recovery ratio with respect to Hb concentration after 0 days [13]: 79% | Hb concentration [14]: 273 µg/L | Recovery ratio with respect to Hb after 0 days [14]: 100% | Hb concentration [15]: 247 µg/L | Recovery ratio with respect to Hb after 0 days [15]: 90% | Hb concentration [16]: 230 µg/L | Recovery ratio with respect to Hb after 0 days [16]: 84% | Hb concentration [17]: 278 µg/L | Recovery ratio with respect to Hb concentration after 0 days [17]: 100% | Hb concentration [18]: 98 µg/L | Recovery ratio with respect to Hb concentration after 0 days [18]: 35% | Hb concentration [19]: 62 µg/L | Recovery ratio with respect to Hb concentration after 0 days [19]: 22% | Hb concentration [20]: 56 µg/L | Recovery ratio with respect to Hb concentration after 0 days [20]: 20% | Hb concentration [21]: 281 µg/L | Recovery ratio with respect to Hb concentration after 0 days [21]: 100% | Hb concentration [22]: 261 µg/L | Recovery ratio with respect to Hb concentration after 0 days [22]: 93% | Hb concentration [23]: 251 µg/L | Recovery ratio with respect to Hb concentration after 0 days [23]: 89% | Hb concentration [24]: 265 µg/L | Recovery ratio with respect to Hb concentration after 0 days [24]: 94% | Hb concentration [25]: 291 µg/L | Recovery ratio with respect to Hb after 0 days [25]: 100% | Hb concentration [26]: 277 µg/L | Recovery ratio with respect to Hb after 0 days [26]: 95% | Hb concentration [27]: 273 µg/L | Recovery ratio with respect to Hb after 0 days [27]: 94% | Hb concentration [28]: 276 µg/L | Recovery ratio with respect to Hb concentration after 0 days [28]: 100% | Hb concentration [29]: 288 µg/L | Recovery ratio with respect to Hb after 0 days [29]: 100% | Hb concentration [30]: 252 µg/L | Recovery ratio with respect to Hb concentration after 0 days [30]: 91% | Hb concentration [31]: 274 µg/L | Recovery ratio with respect to Hb after 0 days [31]: 95% | Hb concentration [32]: 244 µg/L | Recovery ratio with respect to Hb concentration after 0 days [32]: 88% | Hb concentration [33]: 268 µg/L | Recovery ratio with respect to Hb after 0 days [33]: 93% | Hb concentration [34]: 255 µg/L | Recovery ratio with respect to Hb concentration after 0 days [34]: 92% | Hb concentration [35]: 290 µg/L | Recovery ratio with respect to Hb after 0 days [35]: 100% | Hb concentration [36]: 295 µg/L | Recovery ratio with respect to Hb after 0 days [36]: 102% | Hb concentration [37]: 293 µg/L | Recovery ratio with respect to Hb after 0 days [37]: 101% | Hb concentration [38]: 255 µg/L | Recovery ratio with respect to Hb concentration after 0 days [38]: 100% | Hb concentration [39]: 239 µg/L | Recovery ratio with respect to Hb concentration after 0 days [39]: 94% | Hb concentration [40]: 235 µg/L | Recovery ratio with respect to Hb concentration after 0 days [40]: 92% | Hb concentration [41]: 236 µg/L | Recovery ratio with respect to Hb concentration after 0 days [41]: 93% | recovery ratio of hemoglobin in the sample (sugar 100 mmol/L further added to other arylboronic acids (3-CPBA, 3-HPBA, 3-APBA) 15 mmol/L, Feces 1, Feces 2, Feces 3): further improved | recovery ratio of hemoglobin in the samples containing fecal specimens (sugar 100 mmol/L, preservation solutions containing no phenylboronic acid): does not improve | recovery ratio of hemoglobin in the sample (sugar 50 or 100 mmol/L further added to phenylboronic acid 15 mmol/L, Feces 1, Feces 2, Feces 3): remarkably improved | recovery ratio of hemoglobin in the samples containing feces (sugar added to phenylboronic acid 15 mmol/L, Feces 1, Feces 2, Feces 3): improved depending on the added concentration
